Data: patent publication US9695155B2, “Herbicidal substituted pyrimidinyloxy benzene compounds” (E. I. DU PONT DE NEMOURS AND COMPANY, priority 2013, dated 2017)

Legend:
Brazilian crabgrass = assay: Test E postemergence; assay type: in vivo, Digitaria horizontalis
Source text: (§1) Seeds of plant species selected from corn (Zea mays), soybean (Glycine max), velvetleaf (Abutilon theophrasti), lambsquarters (Chenopodium album), wild poinsettia (Euphorbia heterophylla), palmer pigweed (Amaranthus palmeri), waterhemp (common waterhemp, Amaranthus rudis), surinam grass (Brachiaria decumbens), large (Lg) crabgrass (Digitaria sanguinalis), Brazilian crabgrass (Digitaria horizontalis), fall panicum (Panicum dichotomiflorum), giant foxtail (Setaria faberii), green foxtail (Setaria viridis), goosegrass (Eleusine indica), johnsongrass (Sorghum halepense), ragweed (common ragweed, Ambrosia elatior), barnyardgrass (Echinochloa crus-galli), sandbur (southern sandbur, Cenchrus echinatus), arrowleaf sida (Sida rhombifolia), Italian ryegrass (Lolium multiflorum), dayflower (Virginia (VA) dayflower, Commelina virginica), field bindweed (Convolvulus arvensis), morningglory (Ipomoea coccinea), nightshade (eastern black nightshade, Solanum ptycanthum), kochia (Kochia scoparia), yellow nutsedge (Cyperus esculentus), cocklebur (common cocklebur, Xanthium strumarium), smartweed (ladysthumb smartweed, and hairy beggarticks (Bidens pilosa), were planted into a silt loam soil and treated preemergence with test chemicals formulated in a non-phytotoxic solvent mixture which included a surfactant.
(§2) At the same time, plants from these crop and weed species and also horseweed (Canada horseweed, Conyza canadensis), waterhemp_RES1, (ALS & Triazine resistant common waterhemp, Amaranthus rudis), and waterhemp_RES2, (ALS & HPPD resistant common waterhemp, Amaranthus rudis) were planted in pots containing Redi-Earth® planting medium (Scotts Company, 14111 Scottslawn Road, Marysville, Ohio 43041) comprising spaghnum peat moss, vermiculite, wetting agent and starter nutrients were treated with postemergence applications of test chemicals formulated in the same manner. Plants ranged in height from 2 to 18 cm for postemergence treatments (1- to 4-leaf stage). Treated plants and controls were maintained in a greenhouse for 14 to 21 days, after which time all species were compared to controls and visually evaluated. Plant response ratings, summarized in Table E, are based on a scale of 0 to 100 where 0 is no effect and 100 is complete control. A dash (-) response means no test result.

cocklebur = assay: Test E preemergence; assay type: in vivo, Xanthium strumarium; conditions: for Cocklebur plant response rating: scale 0 to 100 (0 no effect, 100 complete control); for Plant response rating, Cocklebur: scale 0 to 100, 0 no effect, 100 complete control
Source text: as §1, §2

Fc1cnc(Oc2ccccc2-n2cc(Br)cn2)nc1 [Compound 10, 2-[2-(4-bromo-1H-pyrazol-1-yl)phenoxy]-5-fluoropyrimidine]
pest or weed control at 31 g/ha (Brazilian crabgrass; Digitaria horizontalis, post-emergence, Postemergence, 31 g ai/ha, scale 0 to 100, read-out: Plant response rating, Crabgrass, Brazil): 0% | pest or weed control at 62 g/ha (Brazilian crabgrass; Digitaria horizontalis, post-emergence, Postemergence, 62 g ai/ha, scale 0 to 100, read-out: Plant response rating, Crabgrass, Brazil): 0% | pest or weed control at 125 g/ha (Brazilian crabgrass; Digitaria horizontalis, post-emergence, Postemergence, 125 g ai/ha, scale 0 to 100, read-out: Plant response rating, Crabgrass, Brazil): 0% | pest or weed control at 250 g/ha (Brazilian crabgrass; Digitaria horizontalis, post-emergence, Postemergence, 250 g ai/ha, scale 0 to 100, read-out: Plant response rating, Crabgrass, Brazil): 5% | pest or weed control at 16 g/ha (Brazilian crabgrass; Digitaria horizontalis, post-emergence, postemergence, 16 g ai/ha, scale 0 to 100, 0 no effect, 100 complete control, read-out: Plant response rating, Crabgrass, Brazil): 0%

Clc1cnc(Oc2cccc(Br)c2-n2cc(Br)cn2)nc1 [Compound 65]
Plant response rating, Crabgrass, Brazil (Brazilian crabgrass; Postemergence, 31 g ai/ha, scale 0 to 100): 10 | Plant response rating, Crabgrass, Brazil (Brazilian crabgrass; Postemergence, 62 g ai/ha, scale 0 to 100): 10 | Plant response rating, Crabgrass, Brazil (Brazilian crabgrass; Postemergence, 125 g ai/ha, scale 0 to 100): 15 | Plant response rating, Crabgrass, Brazil (Brazilian crabgrass; postemergence, 8 g ai/ha, scale 0 to 100, 0 no effect, 100 complete control): 0 | Plant response rating, Crabgrass, Brazil (Brazilian crabgrass; postemergence, 16 g ai/ha, scale 0 to 100, 0 no effect, 100 complete control): 0

N#Cc1cccc(Oc2ncc(F)cn2)c1-n1cc(Cl)cn1 [Compound 73]
Cocklebur plant response rating (cocklebur; 16 g ai/ha): 0 | Cocklebur plant response rating (cocklebur; 31 g ai/ha): 0 | Plant response rating, Cocklebur (cocklebur; 250 g ai/ha): 25

FC(F)(F)c1cnn(-c2c(Cl)cccc2Oc2ncc(Cl)cn2)c1 [Compound 167]
Cocklebur plant response rating (cocklebur; 16 g ai/ha): 0 | Cocklebur plant response rating (cocklebur; 31 g ai/ha): 0 | Cocklebur plant response rating (cocklebur; 62 g ai/ha): 100 | Plant response rating, Cocklebur (cocklebur; 125 g ai/ha): 90
